Assay results taken from patent publication US6569404B1, “Phase shift colloids as ultrasound contrast agents” (priority 1993, dated 2003).
Values joined by “and” are separate entries in the source; they are usually repeats but may differ in a detail not shown here. Equal entries are not always repeated. Where two headings read alike, the source gives them in different places.

How the values were obtained:
[1] = Backscatter persistence and intensity of 2% mixtures in saline, 1000 mL water at 37° C., Hewlett-Packard 77020A; conditions: for Ratio of Persistence: 2% in saline, saline+air set as 1; for Ratio of Intensity: backscatter intensity qualitatively ranked from 0 to 5
Method: The following emulsions were formulated and tested according to methods described in Example 18.
All solutions were made as a 2% solution in saline. A volume of 0.1 cc of each chemical was comminuted with 5 cc saline through a 3-way stopcock for 25 passes. A volume of 1.0 mL of the mixture was immediately injected through a 1.2 μm filter into a stirring water bath containing 1000 mL water at 37° C. The resulting backscatter was then recorded with the use of a Hewlett-Packard 77020A Ultrasound System at […].

[2] = at 25° C.; cited from earlier work
[3] = cited from earlier work; for B.P.: chemicals of Example 52
[4] = Interfacial tension against dodecafluoropentane at 4° C., Kruss Drop Volume Tensiometer DVT-10; format: physicochemical; conditions: from graph of IFT versus HLB
Method: Mixtures of Pluronic P-123 and Pluronic F-127 were formed, yielding a 1% solution, v/v, with graded HLB numbers and the interfacial tension (IFT) of the solutions against dodecafluoropentane determined at 4° C., using a Kruss Drop Volume Tensiometer DVT-10, Kruss USA, Charlotte, N.C. The results are contained in the following table:
Interfacial tensions of various amphiphilic materials in aqueous solutions (all expressed as v/v solutions) against dodecafluoropentane were measured at 4° C. and emulsions created from each formulation, as described in Example 13.

[5] = Acoustic backscatter: gray scale intensity (videodensity) in water beaker at 37° C., Hewlett Packard 77020 scanner, 5.0 MHz
Method: Two solutions were prepared to simulate the administration to an organism of either a colloidal dispersion of a low boiling liquid or the liquid, neat.
The emulsions contained Fluorad 170 C as surfactant and were formed by applying acoustic energy from a waterbath sonicator.

[6] = In vitro ultrasound backscatter / echogenicity of formulations (qualitative); conditions: in words
dogs = conditions: Ziskin et al. 1972, cited from earlier work
[7] = Expected change in dispersion size from liquid and gas densities; conditions: calculated from cubic root of volume
Method: One can also calculate the expected change in dispersion size if one knows the relative densities of the dispersed liquid as a gas and liquid. For example, the Gas Data Book, by W Braker and A Mossman, Matheson, contains such data. Examining octafluorocyclobutane, one finds that 1 L of the liquid yields 188 L of gas at a pressure of 760 mm Hg and 15° C. Since the volume of a sphere is related to the diameter of a sphere by the cubic root of the volume, the phase transition for an octafluorobutane emulsion particle will cause a 5.7-fold increase in diameter.

[8] = 760 mm Hg and 15° C.; Gas Data Book; cited from earlier work
[9] = 1.0 mL in 1000 mL water at 37° C.
[10] = Chemical List of low boiling liquids, Example 45
[11] = boiling point under standard pressure conditions, chemical list arranged by total atoms
[12] = dispersed phase of emulsions of Example 18
[13] = emulsion with Fluorad 170 C, 0.2 mL in 1000 mL water at 37° C., six seconds, backgrounds 2.9, 3.0, 3.6

Structure (SMILES) | Boiling Point [3, 10] [degrees Celcius] | Boiling Point [3, 11] [degrees Celcius] | also measured
ClCCCl [1,2, Dichloroethane, reference compound] | – | – | Ratio of Persistence [1, 9]: 6; Ratio of Intensity [1]: 0.25; Vapor Pressure [2]: 87 mmHg at 25 °C; B.P. [3]: 83 °C
FC(F)(F)C(Cl)Br (centres unmarked) [Halothane] | – | – | Ratio of Persistence [1, 9]: 6; Ratio of Intensity [1]: 0.25; B.P. [3]: 50 °C
CON=O [Methyl nitrite] | −12.0 | – | –
[Ne] [Neon] | −246.0 | – | –
CC(C)(C)C [Neopentane] | 9.5 | – | –
[N]=O [Nitric oxide] | −151.6 | – | –
N#N [Nitrogen (N2)] | −196.0 | – | –
O=NCl [Nitrosyl chloride] | −5.5 | – | –
[N-]=[N+]=O [Nitrous oxide] | −88.5 | – | –
CCCCCCCCC [Nonane] | – | – | Ratio of Persistence [1, 9]: 9; Ratio of Intensity [1]: 0.5; B.P. [3]: 151 °C
O=C(C(F)(F)F)C(F)(F)[N+](=O)[O-] [Pentafluoronitroacetone] | – | 32.6 | –
FC1(F)C(F)(F)C(F)(F)C2(F)C(F)(F)C(F)(F)C(F)(F)C(F)(F)C2(F)C1(F)F (centres unmarked) [Perfluorodecalin] | – | – | Ratio of Persistence [1, 9]: 9; Ratio of Intensity [1]: 2.0; B.P. [3]: 141 °C
FC(F)(F)C(F)(F)C(F)(F)C(F)(F)C(F)(F)C(F)(F)C(F)(F)C(F)(F)F [Perfluorooctane, reference compound] | – | – | Boiling Point [3, 12]: 98 °C
O=C(O)c1c(Cl)c(Cl)c(Cl)c(Cl)c1C(=O)O [Phthalic acid, tetrachloro] | 2.0 | – | –
CC1CCC(C)C(C)N1 (centres unmarked) [Piperidine,2,3,6-trimethyl] | 36.0 | – | –
O=[N+]([O-])C(F)(F)C(F)(F)C(F)(F)F [Propane, heptafluoro-1-nitro] | 25.0 | – | –
O=NC(F)(F)C(F)(F)C(F)(F)F [Propane, heptafluoro-1-nitrose] | −12.0 | – | –
FC(F)(F)C(F)(F)C(F)(F)F [Propane, perfluoro] | −36.0 | – | –
FC(F)=C(F)C(F)(F)F [Propylene, perfluoro] | −29.4 | – | –
C#CC [Propyne] | −23.2 | – | –
F[C](F)(F)[Ge]([C](F)(F)F)([C](F)(F)F)[C](F)(F)F [Tetrakis(trifluoromethyl) germane] | – | 31.7 | –
N#CC(F)(F)F [Trifluoroacetonitrile] | −64.0 | – | –
FC(F)(F)SC(F)(F)F [Trifluoromethyl sulfide] | −22.2 | – | –
CN(C)C [Trimethyl amine] | 2.9 | – | –
F[C](F)(F)[Ge]([Cl])([C](F)(F)F)[C](F)(F)F [Tris-(trifluoromethyl)-germaniumchloride] | – | 37 | –
[F][W]([F])([F])([F])([F])[F] [Tungsten hexafluoride] | 17.5 | – | –

Structure (SMILES) | Boiling Point [3, 10] [degrees Celcius] | Boiling Point [3, 11] [degrees Celcius] | also measured
C#CC=C [Vinyl acetylene] | 5.1 | – | –
C=COC=C [Vinyl ether] | 28.0 | – | –
[Xe] [Xenon] | −108.0 | – | –
CP(C)NP(C)C [bis(Dimethyl phosphino) amine] | 33.5 | – | –
O=C(C(F)(F)F)C(F)(F)Br [bromo-pentafluoro-acetone] | – | 31 | –
CCCCB(F)F [butyl-difluoro-borane] | – | 35 | –
FC(F)(F)C(F)(F)C(F)(F)C(F)(F)F [decafluoro-butane] | – | −1.7 | –
FC(F)I [difluoro-iodo-methane] | – | 21.6 | –
CSC [dimethyl sulfide] | – | 36 | –
FC(F)(F)C(F)(F)C(F)(F)C(F)(F)C(F)(F)F [dodecafluoropentane] | 30.5 | – | time over which backscatter diminished [1, 9]: 4 to 5 min; Ratio of Persistence [1, 9]: 24; Ratio of Intensity [1]: 5; Ratio of Intensity ([1]; listed as Dodecafluoropentane): 5.0; HLB for the dispersed phase liquid [4]: about 14; Vapor Pressure [2]: 646 mmHg at 25 °C; grayscale intensity [5, 13]: 58.5 units; grayscale intensity ([5]; fifty-two seconds post-injection into 1000 mL water at 37° C., gray scale of 2 to 254): 5.0; grayscale intensity ([5]; five seconds post-injection into 1000 mL water at 37° C., gray scale of 2 to 254, 0.1 mL emulsion (before 4.27) or 0.2 mL neat liquid (before 4.9)): 7.7; B.P. [3]: 29 °C; Boiling Point [3]: 28-29 °C; Boiling Point [3, 12]: 29 °C
CCOCC [ether, diethyl ether] | 34.5 | – | in vitro ultrasound backscatter characteristics [6]: useful contrast signal; lethality (dogs; injections of 20 mL): proved fatal; contrast effect (Doppler signal) (dogs; intraarterial): greatest contrast effect of any agent that we tried
CCC1CC1 [ethyl-cyclopropane] | – | 35.8 | –
CCN(C)C [ethyl-dimethyl-amine] | – | 36.4 | –
CCOC [ethyl-methyl ether] | – | 6.6 | –
CC[Si](F)(F)F [ethyl-trifluoro-silane] | – | −4.4 | –
C=COCC [ethyl-vinyl ether] | – | 35 | –
NC=O [formamide] | – | 2.18 | –
CC(C)N [isopropylamine] | – | 31.7 | –
CC1CCC1 [methyl-cyclobutane] | – | 36 | –
CC1CC1 [methyl-cyclopropane] | – | 0.7 | –
FC(F)(F)C(F)(F)C(F)(C(F)(F)F)C(F)(F)F [nonafluoro-2-trifluoromethyl-butane] | – | 30.12 | –
FC1(F)C(F)(F)C(F)(F)C1(F)F [octafluorocyclobutane] | – | – | increase in diameter of emulsion particle on phase transition [7]: 5.7 fold; volume of gas from 1 L of the liquid [8]: 188 L
FC1(F)C(F)(F)C(F)(F)C(F)(F)C1(F)F [perfluorocyclopentane] | – | – | grayscale intensity [5, 13]: 158.9 units; Boiling Point [3]: 22.5 °C and 22 °C
C1CC12CC2 [spiropentane] | – | 35 | –
CCC[Si](F)(F)F [trifluoro-propyl-silane] | – | 25 | –
